From ChEMBL document CHEMBL3352340, “7-Amino-2-phenylpyrazolo[4,3-d]pyrimidine derivatives: structural investigations at the 5-position to target human A₁ and A(2A) adenosine receptors. Molecular modeling and pharmacological studies” (Eur J Med Chem, 2014)
Activity calls are given as the source filed them. The calls are words filed in the database; no cut-off is given here.

Assays:
[1] = target: T1, Adenosine receptor A1 (Homo sapiens, UniProt P30542); test: Displacement of [3H]-DPCPX from human adenosine A1 receptor expressed in CHO cells by scintillation counting analysis; type: cell-based
T1 sequence (P30542 whole entry): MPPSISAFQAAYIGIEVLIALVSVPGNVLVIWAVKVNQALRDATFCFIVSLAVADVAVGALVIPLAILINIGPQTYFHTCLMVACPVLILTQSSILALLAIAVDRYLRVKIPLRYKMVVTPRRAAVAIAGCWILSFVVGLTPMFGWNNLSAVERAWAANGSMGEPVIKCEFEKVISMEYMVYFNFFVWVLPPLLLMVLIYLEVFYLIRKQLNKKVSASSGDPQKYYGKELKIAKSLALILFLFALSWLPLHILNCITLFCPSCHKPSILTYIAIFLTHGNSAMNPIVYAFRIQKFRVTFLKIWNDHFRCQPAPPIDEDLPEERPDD

[2] = target: T2, Adenosine receptor A2a (Homo sapiens, UniProt P29274); test: Displacement of [3H]ZM241385 from human adenosine A2A receptor expressed in CHO cells at 1 uM by scintillation counting analysis relative to control; type: cell-based
T2 sequence (P29274 whole entry): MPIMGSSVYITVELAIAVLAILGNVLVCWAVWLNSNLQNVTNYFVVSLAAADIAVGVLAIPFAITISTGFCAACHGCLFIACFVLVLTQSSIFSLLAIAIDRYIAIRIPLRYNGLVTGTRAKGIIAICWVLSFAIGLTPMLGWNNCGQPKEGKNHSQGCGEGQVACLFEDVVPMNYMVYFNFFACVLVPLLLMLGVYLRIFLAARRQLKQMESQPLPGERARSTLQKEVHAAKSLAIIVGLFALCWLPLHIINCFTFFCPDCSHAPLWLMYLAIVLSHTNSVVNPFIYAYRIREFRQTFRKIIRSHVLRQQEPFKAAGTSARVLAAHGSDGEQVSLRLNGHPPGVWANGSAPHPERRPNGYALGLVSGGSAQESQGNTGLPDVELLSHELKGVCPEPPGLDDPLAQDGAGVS

[3] = target: T3, Adenosine receptor A3 (Homo sapiens) (UniProt P0DMS8); test: Displacement of [3H]AB-MECA from human adenosine A3 receptor expressed in CHO cells at 1 uM by scintillation counting analysis relative to control; type: cell-based
T3 sequence (whole entry): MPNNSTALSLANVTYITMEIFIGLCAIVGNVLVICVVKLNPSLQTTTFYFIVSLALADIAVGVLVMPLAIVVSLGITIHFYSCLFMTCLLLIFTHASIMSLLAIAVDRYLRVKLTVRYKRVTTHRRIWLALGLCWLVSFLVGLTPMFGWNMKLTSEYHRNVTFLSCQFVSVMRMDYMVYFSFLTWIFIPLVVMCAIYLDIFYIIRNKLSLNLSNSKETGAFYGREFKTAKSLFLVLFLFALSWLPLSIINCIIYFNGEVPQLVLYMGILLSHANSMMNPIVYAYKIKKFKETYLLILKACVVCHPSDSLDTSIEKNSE

[4] = target: T4, Adenosine receptor A2b (Homo sapiens) (UniProt P29275); test: Antagonist activity at human adenosine A2B receptor expressed in CHO cells assessed as inhibition of NECA-stimulated cAMP level at 1 uM by scintillation counting analysis; type: functional, cell-based
T4 sequence (whole entry): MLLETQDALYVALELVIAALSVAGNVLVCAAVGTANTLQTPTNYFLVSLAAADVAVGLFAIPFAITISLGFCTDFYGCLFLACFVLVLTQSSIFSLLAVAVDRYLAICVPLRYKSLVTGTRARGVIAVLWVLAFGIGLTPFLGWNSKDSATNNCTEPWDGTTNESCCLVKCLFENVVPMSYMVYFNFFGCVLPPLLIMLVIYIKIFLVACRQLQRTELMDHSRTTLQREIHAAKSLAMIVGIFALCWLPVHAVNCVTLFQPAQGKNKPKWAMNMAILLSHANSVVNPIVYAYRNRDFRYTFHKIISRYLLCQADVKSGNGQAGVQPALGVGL

[5] = target: T2, Adenosine receptor A2a; test: Displacement of [3H]ZM241385 from human adenosine A2A receptor expressed in CHO cells by scintillation counting analysis; type: cell-based
[6] = target: T5, Adenosine receptor A2b (Homo sapiens, UniProt P29275); test: Antagonist activity at human adenosine A2B receptor expressed in CHO cells assessed as inhibition of NECA-stimulated cAMP level by scintillation counting analysis; type: functional, cell-based
T5 sequence (P29275 whole entry): T4 sequence (whole entry)

[7] = target: T1, Adenosine receptor A1; test: Antagonist activity at human adenosine A1 receptor expressed in CHO cells assessed as inhibition of CCPA-stimulated cAMP level by scintillation counting analysis; type: functional, cell-based
[8] = target: T2, Adenosine receptor A2a; test: Antagonist activity at human adenosine A2A receptor expressed in CHO cells assessed as inhibition of NECA-stimulated cAMP level by scintillation counting analysis; type: functional, cell-based
[9] = target: T6, Adenosine receptor A1 (Homo sapiens) (UniProt P30542); test: Displacement of [3H]-DPCPX from human adenosine A1 receptor expressed in CHO cells at 1 uM by scintillation counting analysis relative to control; type: cell-based
T6 sequence (whole entry): T1 sequence (P30542 whole entry)

[10] = target: T7, Adenosine receptor A3 (Homo sapiens, UniProt P0DMS8); test: Displacement of [3H]AB-MECA from human adenosine A3 receptor expressed in CHO cells by scintillation counting analysis; type: cell-based
T7 sequence (P0DMS8 whole entry): T3 sequence (whole entry)

[11] = target: T6, Adenosine receptor A1 (Homo sapiens); details: CHO, 100 nM
Description: Antagonist activity at human adenosine A1 receptor expressed in CHO cells assessed as inhibition of CCPA-stimulated cAMP level at 100 nM by scintillation counting analysis

Compound	Ki [1]	inhibition [2]	inhibition [3]	inhibition [4]	Ki [5]	IC50 [6]	IC50 [7]	IC50 [8]	inhibition [9]	Ki [10]	inhibition [11]
Nc1nc(CCc2ccc(O)cc2)nc2cn(-c3ccccc3)nc12	420 nM	30%	37%	7%	–	–	–	–	–	–	–
Nc1nc(CCCc2ccccc2)nc2cn(-c3ccccc3)nc12	5.31 nM	–	12%	42%	55 nM	432 nM	43 nM	423 nM	–	–	–
C=CCOc1ccc(CCCc2nc(N)c3nn(-c4ccccc4)cc3n2)cc1	–	15%	3%	3%	–	–	–	–	40%	–	–
Nc1nc(Cc2cccc(C(F)(F)F)c2)nc2cn(-c3ccccc3)nc12	–	21%	41%	1%	–	–	–	–	1%	–	–
Nc1nc(Cc2ccc3c(c2)OCO3)nc2cn(-c3ccccc3)nc12	75 nM	2%	14%	1%	–	–	–	–	–	–	–
CC(C)Cc1nc(N)c2nn(-c3ccccc3)cc2n1	–	50%	13%	1%	–	–	–	–	49%	–	–
COc1ccc(CCc2nc(N)c3nn(-c4ccccc4)cc3n2)cc1	380 nM	13%	22%	9%	–	–	–	–	–	–	–
COc1ccc(Cc2nc(N)c3nn(-c4ccccc4)cc3n2)cc1	–	20%	38%	5%	–	–	–	–	48%	–	–
Nc1nc(CCCc2ccccc2O)nc2cn(-c3ccccc3)nc12	0.54 nM	–	36%	–	102 nM	247 nM	4.26 nM	–	–	–	–
Nc1nc(Cc2ccc(O)cc2)nc2cn(-c3ccccc3)nc12	–	44%	20%	4%	–	–	–	–	39%	–	–
CCc1nc(N)c2nn(-c3ccccc3)cc2n1	90 nM	38%	38%	49%	–	–	–	–	–	–	–
COc1ccccc1Cc1nc(N)c2nn(-c3ccccc3)cc2n1	375 nM	–	–	1%	213 nM	–	–	–	–	572 nM	–
COc1ccc(CCCc2nc(N)c3nn(-c4ccccc4)cc3n2)cc1	16 nM	–	1%	30%	790 nM	–	–	–	–	–	–
COc1cccc(CCCc2nc(N)c3nn(-c4ccccc4)cc3n2)c1	0.15 nM	–	33%	–	147 nM	334 nM	2.41 nM	–	–	–	–
OC[C@H]1O[C@@H](n2cnc3c(NC4CCCC4)nc(Cl)nc32)[C@H](O)[C@@H]1O	–	–	–	–	–	–	–	–	–	–	Active
Nc1nc(Cc2ccccc2F)nc2cn(-c3ccccc3)nc12	35 nM	–	37%	–	154 nM	123 nM	–	–	–	–	–
Nc1nc(CCc2ccccc2)nc2cn(-c3ccccc3)nc12	–	35%	17%	2%	–	–	–	–	15%	–	–
CC(C)c1nc(N)c2nn(-c3ccccc3)cc2n1	–	22%	11%	5%	–	–	–	–	2%	–	–
Nc1nc(Cc2ccc(Cl)cc2)nc2cn(-c3ccccc3)nc12	–	1%	11%	1%	–	–	–	–	49%	–	–
COc1cccc(Cc2nc(N)c3nn(-c4ccccc4)cc3n2)c1	90 nM	14%	37%	1%	–	–	–	–	–	–	–
Nc1nc(Cc2cccc(O)c2)nc2cn(-c3ccccc3)nc12	312 nM	–	–	1%	521 nM	–	–	–	–	435 nM	–
Nc1nc(Cc2ccccc2O)nc2cn(-c3ccccc3)nc12	64 nM	–	–	1%	89 nM	–	–	–	–	97 nM	–

Next, values leading:

Ki [1]	inhibition [2]	inhibition [3]	inhibition [4]	Ki [5]	IC50 [6]	IC50 [7]	IC50 [8]	inhibition [9]	Ki [10]	inhibition [11]	Compound
1.31 nM	–	47%	–	153 nM	387 nM	12 nM	–	–	–	–	COc1ccccc1CCCc1nc(N)c2nn(-c3ccccc3)cc2n1
80 nM	–	4%	–	410 nM	630 nM	–	–	–	–	–	Nc1ncnc2cn(-c3ccccc3)nc12
155 nM	44%	22%	3%	–	–	–	–	–	–	–	Nc1nc(Cc2ccccc2Cl)nc2cn(-c3ccccc3)nc12
480 nM	21%	25%	7%	–	–	–	–	–	–	–	Nc1nc(/C=C/c2ccccc2)nc2cn(-c3ccccc3)nc12
–	6%	42%	1%	–	–	–	–	32%	–	–	Nc1nc(Cc2cccc(Cl)c2)nc2cn(-c3ccccc3)nc12
–	31%	11%	21%	–	–	–	–	41%	–	–	Cc1cccc(Cc2nc(N)c3nn(-c4ccccc4)cc3n2)c1
–	3%	2%	8%	–	–	–	–	14%	–	–	Nc1nc(CCCc2ccc(OCc3ccccc3)cc2)nc2cn(-c3ccccc3)nc12
0.22 nM	–	46%	–	146 nM	314 nM	2.87 nM	–	–	–	–	Nc1nc(CCCc2cccc(O)c2)nc2cn(-c3ccccc3)nc12
18 nM	–	20%	5%	722 nM	–	–	–	–	–	–	Nc1nc(CCCc2ccc(O)cc2)nc2cn(-c3ccccc3)nc12
–	26%	39%	21%	–	–	–	–	38%	–	–	Cc1ccc(Cc2nc(N)c3nn(-c4ccccc4)cc3n2)cc1
